Earlier results, collected in patent publication US12109298B2, “Improving the fastness to washing of pigment-containing dyes by using an oxidative pretreatment agent” (Henkel AG & Co. KGaA, priority 2020, dated 2024).
Like-named read-outs stand apart in the source and are kept apart here.

Tests used:
[1] = 5% solution in water
[2] = 25° C.

O=P([O-])(O)O.[K+] [Potassium dihydrogen phosphate]
pH value [1]: 4.4

O=C([O-])c1c(Cl)c(Cl)c(Cl)c(Cl)c1-c1c2c(Br)cc(=O)c(Br)c-2oc2c(Br)c(O)cc(Br)c12.O=C([O-])c1c(Cl)c(Cl)c(Cl)c(Cl)c1-c1c2c(Br)cc(=O)c(Br)c-2oc2c(Br)c(O)cc(Br)c12.[Na+].[Na+] [Acid Red 92, disodium salt of 3,4,5,6-tetrachloro-2-(1,4,5,8-tetrabromo-6-hydroxy-3-oxoxanthen-9-yl)benzoic acid]
solubility in water [2]: greater than 10 g/L

O=C([O-])C1=NN(c2ccc(S(=O)(=O)[O-])cc2)C(=O)C1N=Nc1ccc(S(=O)(=O)[O-])cc1.[Na+].[Na+].[Na+] (stereo not drawn) [Acid Yellow 23, trisodium salt of 4,5-dihydro-5-oxo-1-(4-sulfophenyl)-4-((4-sulfophenyl)azo)-1H-pyrazole-3-carboxylic acid]
solubility in water ([2]; in words): readily soluble in water

CCN(Cc1cccc(S(=O)(=O)[O-])c1)c1ccc(C(=C2C=CC(=[N+](CC)Cc3cccc(S(=O)(=O)[O-])c3)C=C2)c2ccccc2S(=O)(=O)[O-])cc1.[Na+].[Na+] [Acid Blue 9]
solubility in water [2]: more than 20 wt. %

Nc1cc(S(=O)(=O)[O-])cc2cc(S(=O)(=O)[O-])c(N=Nc3ccccc3)c(O)c12.[Na+].[Na+] [Acid Red 33, diantrium salt of 5-amino-4-hydroxy-3-(phenylazo)-naphthalene-2,7-disulphonate]
solubility in water [2]: 2500 µg/mL

O=S(=O)([O-])c1ccc(N=Nc2c(O)ccc3ccccc23)cc1.[Na+] [Acid Orange 7, sodium salt of 4-[(2-hydroxy-1-naphthyl)azo]benzene sulfonate]
solubility in water [2]: more than 7 g/L
